Reference: US20100267803A1, “Regulators Of Fat Metabolism As Anti-Cancer Targets” (The Research Foundation of State University Of New York, priority 2008, published 2010)

Columns and labels:
NR1D1 mRNA = test: qRT-PCR of NR1D1 mRNA in BT474 cells; assay type: cell-based, human; conditions: shRNA 48 h, qRT-PCR
Description: (§1) FIG. 2 NR1D1 and PBP are necessary for survival of ERBB2-positive cells. (a) PBP and NR1D1 mRNA levels of BT474 cells transfected with luciferase (control), PBP or NR1D1 shRNAs for 48 h, analyzed by qRT-PCRs. (Error bars are s.d from 3 experiments; ***P<0.003, **P=0.01, *P=0.02). (b) BMAL1 luciferase reporter activity of BT474 cells transfected with either empty vector (control), or NR1D1 shRNA for 48 h.
(§2) FIG. 3 PPAR. inhibition impacts NR1D1 expression and ERBB2-positive cells viability. (a) Cell counts of BT474, MDA-MB-361, MCF-7 and HMEC cells treated with vehicle, 10 and 20 μM of the PPAR. antagonist GW9662 for 72 hrs. Results represented as % of control (vehicle). (Error bars are s.d from 3 individual experiments; *P>0.2, **P<0.05, ***P<0.002). (b) BT474 cells treated with vehicle or 20 μM of GW9662 for 48 h were immuno-stained for cleaved Caspase-3. (c) Quantification of Caspase-3 signal. (Error bars are s.d from 3 individual experiments; ***P=0.002). (d) aP2 and NR1D1 mRNA levels of BT474 cells treated with vehicle (control) and 20 μM of GW9662 for 48 h, analyzed by qRT-PCRs. […]

MDH1 mRNA = test: qRT-PCR of MDH1 mRNA in BT474 cells; assay type: cell-based, human; conditions: shRNA 48 h
Description: (§3) FIG. 5. (a) MDH1 and ME1 mRNA levels of BT474 cells treated with luciferase (control), PBP or NR1D1 shRNAs for 48 h, analyzed by qRT-PCRs. (Error bars are s.d from 3 experiments; **P<0.002 (b) BT474 and MCF-7 cells were transfected with luciferase (control) MDH1 and ME1 shRNAs (Error bars are s.d from 3 individual experiments; ***P=0.0003). (c) BT474 cells) assayed for cleaved Caspase-3 signal by immunofluorescence 48 h after transfection; cell nuclei were stained with Hoechst 33243. (d) Quantification of cleaved Caspase-3 signal from cells in (c). (Error bars are s.d from 3 individual experiments; ***P<0.005). (e) Enzymes involved in fatty acid synthesis and storage that are regulated by NR1D1 and PBP and their proposed contribution to energy production necessary for survival of ERBB2-positive breast cancer cells.
(§4) Cell viability—apoptosis assays. […] At least 30 fields were imaged per single experiment. […] Immunoblotting. […] PCR reaction was run using standard conditions.

ME1 mRNA = test: qRT-PCR of ME1 mRNA in BT474 cells; assay type: cell-based, human; conditions: shRNA 48 h
Description: as §3, §4

BMAL1 reporter = test: BMAL1 luciferase reporter assay in BT474 cells; assay type: cell-based, human; conditions: shRNA 48 h, vs empty vector
Description: as §1
as §2, with “(Error bars are s.d from 3 individual experiments; ***P=0.002).” left out
Reporter assays. […] Cells were lysed 48 h post-transfection and firefly (reporter) and renilla luciferase activities were measured using the Dual-Luciferase Reporter Assay kit (Promega) on a BioTek Synergy HT reader. The ratio of Firefly to Renilla luciferase activity was calculated and presented as percentage of control.

BT474 cells = test: Counts of GFP co-transfected BT474 cells (cell death / viability); assay type: cell-based, human; conditions: shRNA co-transfected with GFP, counted up to 72 h
Description: Results are shown as percentage of control. (**P=0.03). (c) BT474 cells were transfected with luciferase (control), PBP and NR1D1 shRNAs and co-transfected with GFP. Green cells were counted at intervals and expressed as percentage of control. (Error bars are s.d from 3 individual experiments; *P<0.08, **P<0.03, ***P<0.005). (d) BT474 cells were transfected with luciferase (control), PBP or NR shRNAs for 48 h. Immunofluorescence was performed for cleaved Caspase-3 signal; cell nuclei were stained with Hoechst 33243. (e) Cells from […] were counted for cleaved Caspase-3 signal. (Error bars are s.d from 3 individual experiments; ***P<0.0003). (f) BT474 cells were transfected with luciferase (control) PBP, NR1D1 or PBP and NR1D1 shRNAs together and co-transfected with GFP. Transfected cells were counted at 24 h and 72 h and the 72 h-to-24 h ratio for each shRNA was calculated and expressed as % of the control shRNA (luciferase). (Error bars are s.d from 3 individual experiments; **P=0.01, ***P<0.002). (g) Cells from (f) were counted for cleaved Caspase-3 signal. (Error bars are s.d from 3 individual experiments; ***P<0.0001). (h) ERBB2 mRNA levels of BT474 cells transfected with luciferase (control), PBP or NR1D1 shRNAs for 48 h, analyzed by qRT-PCRs. (Error bars are s.d from 3 individual experiments; ***P=0.0001).
FIG. 4 NR1D1 and PBP coordinate fatty acid metabolism in breast cancer cells. (a) BT474, MDA-MB-361, MCF-7 and HMEC cells were stained with Oil-Red O lipid and hematoxylin nuclear stains. (b) Fat stores were quantified by BODIPY 493/503 lipid probe staining (Error bars are s.d from 3 individual experiments). (c) FASN, ACLY, ACACA and FADS2 mRNA levels of BT474 cells treated with luciferase (control), PBP or NR1D1 shRNAs, or with vehicle and 20 μM of GW9662 for 48 h, analyzed by qRT-PCRs. (Error bars are s.d from 3 experiments; ***P<0.001, **P=0.005) (d) BT474 cells were transfected with FASN, ACLY and ACACA shRNAs and co-transfected with GFP. Transfected cells were counted at 24 h and 72 h and the 72h-to-24 h ratio for each shRNA was calculated and expressed as % of the control shRNA (luciferase). (Error bars are s.d from 3 individual experiments; **P<0.01, ***P<0.002). (e) BODIPY images and (f) quantification of BT474 cells transfected with luciferase (control), PBP or NR1D1 shRNAs and co-transfected with DsRed (Error bars are s.d from 3 individual experiments; ***P<0.03). Arrows indicate transfected cells.
as §3, §4

PBP mRNA = test: qRT-PCR of PBP mRNA in BT474 cells; assay type: cell-based, human; conditions: shRNA 48 h
Description: as §1, §4

PBP = conditions: after shRNA transfection
Description: Immunoblotting. Cell extracts for western blots were obtained using RIPA buffer (1% Triton X-100, 40mM NaCl, 0.1% SDS, 10 mM Tris pH 8.0) supplemented with complete cocktail of proteinase inhibitors (Roche). For detection of phoshporylated epitopes, the PhosSTOP cocktail of phospatase inhibitors (Roche) was added in the lysis buffer. Protein extracts were separated by SDS-PAGE, transferred to Immobilon-P (Millipore) membranes and immunoblotted according to standard protocols. Blots were imaged using a FluorChem HD (Alpha Innotech) imaging system and images were analyzed by densitometry using the FluorChem 9900 software (Alpha Innotech). Antibodies used: anti-flag (M2; Stratagene), PBP (TRAP220, C-19; Santa Cruz), GAPDH (V-18; Santa Cruz Biotechnology), ERBB2 (clone 42; BD), phospho-ERBB2 (Tyr877, #2241; Cell Signaling Technology), phospho-ERBB2 (Tyr1221/1222, 6B12; Cell Signaling Technology), anti-rabbit IgG-HRP (sc-2204, Santa Cruz Biotechnology), anti-goat IgG-HRP (sc-2768, Santa Cruz Biotechnology), anti-mouse IgG-HRP (#31430; Pierce Biotechnology) qRT-PCR.

NR1D1 shRNA: shRNA, mature sequence GGCATGGTGTTACTGTGTA (shRNA)
decrease in mRNA levels of target (NR1D1) (NR1D1 mRNA): > 60% | MDH1 message levels (MDH1 mRNA): significantly decreased | ME1 message levels (ME1 mRNA): significantly decreased | up-regulation of BMAL1 reporter (BMAL1 reporter): 2.5 fold | cell death / viability (cell number of transfected cells) (BT474 cells): time-dependent decrease of cell number

PBP shRNA: shRNA, mature sequence CCGAGTTCCTCTTATCCTA (shRNA)
decrease in mRNA levels of target (PBP) (PBP mRNA): > 60% | cell death / viability (cell number of transfected cells) (BT474 cells): time-dependent decrease of cell number | PBP protein levels (PBP): decreased protein levels
